# Assays:
# protein kinase G = biological target: T1, protein kinase G (Homo sapiens, UniProt Q13976); experiment: Effect of activating protein kinase G: phosphorylation of Ser 157 of VASP detected by Western blotting in human uterine smooth muscle cells; type: cell-based; settings: for 50-kDa band of VASP having the phosphorylated Ser at position 157 (anti-VASP (Ser157) antibody): 1 mM compound, 5, 10, 15 and 30 minutes after addition, no bands at 0 minutes
# T1 construct: host or cells: human uterine smooth muscle cells
# T1 sequence (Q13976 1-671): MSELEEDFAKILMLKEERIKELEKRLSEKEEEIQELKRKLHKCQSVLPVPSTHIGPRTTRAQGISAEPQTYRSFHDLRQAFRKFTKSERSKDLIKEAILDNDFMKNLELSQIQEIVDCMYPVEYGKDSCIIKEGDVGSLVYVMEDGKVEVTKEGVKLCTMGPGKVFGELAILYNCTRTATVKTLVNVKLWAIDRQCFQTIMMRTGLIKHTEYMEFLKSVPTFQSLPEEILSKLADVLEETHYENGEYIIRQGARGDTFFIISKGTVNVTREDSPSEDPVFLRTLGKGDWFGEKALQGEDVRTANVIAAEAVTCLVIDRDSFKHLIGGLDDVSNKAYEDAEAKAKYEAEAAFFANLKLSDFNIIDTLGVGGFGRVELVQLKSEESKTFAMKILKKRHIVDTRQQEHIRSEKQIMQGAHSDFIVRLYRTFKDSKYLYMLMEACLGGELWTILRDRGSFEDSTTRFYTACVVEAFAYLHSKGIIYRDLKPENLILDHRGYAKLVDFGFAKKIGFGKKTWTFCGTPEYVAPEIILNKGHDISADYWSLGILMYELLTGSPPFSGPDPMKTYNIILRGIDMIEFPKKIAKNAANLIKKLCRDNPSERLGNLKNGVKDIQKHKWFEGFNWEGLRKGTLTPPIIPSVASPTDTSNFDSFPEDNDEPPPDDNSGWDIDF
# Experimental: Intracellular signaling conducted by 8-nitroguanosine-3′,5′-cyclic monophosphate through mediation of protein kinase G was analyzed according to the method of Sergei D. Rybalkin et al (J. Biol. Chem. 277 3310-3317, 2002). Specifically, phosphorylation of Ser at position 157 of VASP (Vasodilator Stimulated Phosphoprotein), a substrate protein of protein kinase G, was detected by Western blotting. Specifically, human uterine smooth muscle cells (produced by CAMBREX) were cultured in Dulbecco's Modified Eagle Medium (DMEM-10% FCS) containing 10% fetal calf serum (FCS). The cells were seeded on a 6-well plate (produced by Falcon) at 4×10^5 cells/well and then cultured for 24 hours. The resultant was washed 3 times using phosphate buffered saline (PBS). Subsequently, DMEM-10% FCS containing 1 mM 8-nitroguanosine-3′,5′-cyclic monophosphate and 1 mM 8-Br-cGMP (produced by SIGMA) was added to the cells. Medium was immediately removed at 5 minutes, 10 minutes, 15 minutes, and 30 minutes after addition, followed by 2 instances of washing with PBS. A cell lysis solution (20 mM Tris-HCl (pH 8.0), 0.15 M NaCl, 1 mM EDTA, 1 mM EGTA, 1% TritonX-100, 2.5 mM sodium pyrophosphate, 1 mM β-glycerolphosphate, […], 1 μg/ml leupeptin, and 1 mM PMSF) was added. The resultant was allowed to stand on ice for 5 minutes, recovered using a cell scraper, transferred into an Eppendorf tube, and then ultrasonicated twice (5 seconds each). […] The protein concentration of the soluble fraction of the supernatant was determined using a BCA protein assay (produced by PIERCE). […] The resultant was then washed 3 times with TBST (10 minutes each), chemiluminescence was detected using LAS 1000plus (produced by FujiFilm) and ECL-plus (produced by Amersham Biosciences) as color developers, and then image files were incorporated. […] As is understood from the results in FIG. 1, no bands were detected at 0 minutes, but a 50-kDa band of VASP having the phosphorylated Ser at position 157 was detected at 5, 10, 15, and 30 minutes after addition of 8-nitroguanosine-3′,5′-cyclic monophosphate or 8-Br-cGMP.
# [1] = tested on: excised rat carotid artery ring specimen; experiment: Effect of relaxing vascular smooth muscle: phenylephrine pre-contracted excised rat carotid artery ring specimen, Magnus equipment; settings: for concentration required for exertion of the tension variation of 0.1 g: 100 nM phenylephrine pre-contraction, resting tension 1 g
# Experimental: The effect of relaxing vascular smooth muscle exerted by 8-nitroguanosine-3′,5′-cyclic monophosphate was determined according to the method of Magnus R (Ergen Physiol. 2, 637-672, 1903) by causing phenylephrine, which is an α1 adrenergic receptor agonist, to act to cause pre-contraction of an excised rat carotid artery ring specimen, adding 8-nitroguanosine-3′,5′-cyclic monophosphate at different concentrations, and then determining the resulting relaxing effect using Magnus laboratory equipment, Specifically, an SD rat (male, 10-week-old, body weight of 350 g, CHARLES RIVER LABORATORIES JAPAN, INC.) was sacrificed under ether anesthesia, a carotid artery was excised, a stainless-steel bar was inserted into the intravascular lumen, and then endothelial cells were removed through scraping, thereby preparing ring vascular specimens of approximately 4 mm each. The vascular specimens were immersed in 3 ml of a Krebs buffer (1.2 mM NaHPO4, 120 mM NaCl, 5.9 mM KCl, 2.5 mM CaCl2, 1.2 mM MgCl2, 15.5 mM NaHCO3, and 11.5 mM glucose). The Krebs buffer used herein had been previously kept at 37° C., aerated with 95% O2+5% CO2 for oxygenation, and adjusted to pH of 7.4. The ring vascular specimens were fixed within a microtissue organ bath MTOB-2 (produced by Labo Support Co., Ltd.). Isometric tension was measured at the resting tension of 1 g using an isometric transducer and an amplifier for such transducer (AG-621G Nihon Kohden Corporation). A PowerLab data acquisition apparatus (AD instruments) was used for data analysis. 1-Phenylephrine hydrochloride (produced by Wako Pure Chemical Industries, Ltd.) was added at a final concentration of 100 nM to the Krebs buffer, so as to sufficiently contract the blood vessels. 8-Nitroguanosine-3′,5′-cyclic monophosphate and 8-Br-cGMP were each cumulatively administered at final concentrations of 1 μM, 3 μM, 10 μM, 30 μM, 100 μM, and 300 μM. The relaxing action on vascular smooth muscle was determined. […] In particular, whereas the 8-nitroguanosine-3′,5′-cyclic monophosphate concentration required for exertion of the tension variation of 0.1 g was 10 μM, the 8-Br-cGMP concentration required for the same was 30 μM.
# [2] = endothelium-removed rat carotid artery ring
Structure (SMILES),50-kDa band of VASP having the phosphorylated Ser at position 157 (anti-VASP (Ser157) antibody) (protein kinase G),"concentration required for exertion of the tension variation of 0.1 g [1, 2] [µM]","50-kDa band shifted to the higher molecular weight side because of phosphorylation (antibody recognizing the entire VASP molecule) (protein kinase G; 1 mM compound, at 5 minutes or more after addition, almost no 50-kDa band at 0 minutes)","relaxing effect on blood vessel contracted using phenylephrine ([1]; endothelium-removed rat carotid artery ring, 100 nM phenylephrine, cumulative 1-300 μM)","effect of relaxing vascular smooth muscle relative to 8-Br-cGMP ([1]; rat carotid artery ring, from concentrations giving tension variation of 0.1 g)"
"Nc1nc2c(nc(Br)n2[C@@H]2O[C@@H]3COP(=O)(O)O[C@H]3[C@H]2O)c(=O)[nH]1 [8-Br-cGMP, 8-bromoguanosine-3′,5′-cyclic monophosphate, reference compound]",detected,30,,,
"Nc1nc2c(nc([N+](=O)[O-])n2C2O[C@@H]3COP(=O)(O)OC3C2O)c(=O)[nH]1 (stereo partly shown) [8-nitroguanosine-3′,5′-cyclic monophosphate]",detected,10,detected in all cases,exerted a relaxing effect,approximately 3 times

# — patent US7935814B2, “Nitroguanosine-3′ 5′-cyclic monophosphate compound and protein kinase G activating agent” (Kumamoto University, priority 2005, dated 2011)
